Molecular target: AMPK
Assay: AMPK activation, enzyme-linked immunosorbent assay
Assay type: biochemical
Conditions: Table 8, compounds of Table 1
In short: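 AMPK activation by test compounds was measured by enzyme-linked immunosorbent assay.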

| EC50 [nM] | SMILES |
| --- | --- |
| < 100 | O=C(NC1CCN(Cc2ccc(OC(F)(F)F)cc2)CC1)c1cc2cc(O[C@@H]3CCN(Cc4ccc(-n5cccn5)cc4)C[C@H]3F)ccc2o1 [Compound 1-169, 5-((3,4-trans)-1-(4-(1H-pyrazol-1-yl)benzyl)-3-fluoropiperidin-4-yloxy)-N-(1-(4-(trifluoromethoxy)benzyl)piperidin-4-yl)benzofuran-2-carboxamide] |
| 1000 to 5000 | CC(C)(C)OC(=O)N1CCC(NC(=O)c2ccnc(OC3CCN(c4ccc(C(F)(F)F)cc4)CC3)c2)CC1 [Compound 1-15, tert-butyl 4-(2-(1-(4-(trifluoromethyl)phenyl)piperidin-4-yloxy)isonicotinamido) piperidine-1-carboxylate] |
| 100 to 500 | CC(C)(C)OC(=O)N1CCC(NC2CCc3cc(OC4CCN(c5ccc(C(F)(F)F)cc5)CC4)ccc32)CC1 (stereo not drawn) [Compound 1-156, tert-butyl 4-(5-(1-(4-(trifluoromethyl)phenyl)piperidin-4-yloxy)-2,3-dihydro-1H-inden-1-ylamino)piperidine-1-carboxylate] |
| 100 to 500 | O=C(N[C@@H]1CCN(Cc2ccncc2)C1)c1cc2cc(OC3CCN(c4ccc(C(F)(F)F)cc4)CC3)ccc2o1 [Compound 1-122, (R)-N-(1-(pyridin-4-ylmethyl)pyrrolidin-3-yl)-5-(1-(4-(trifluoromethyl)phenyl)piperidin-4-yloxy)benzofuran-2-carboxamide] |

Same assay, conditions: Table 9, compounds of Table 2

| EC50 [nM] | SMILES |
| --- | --- |
| < 500 | O=C(NC1CCN(c2ccc(F)cc2)CC1)c1ccc2[nH]c3c(c2c1)CN(Cc1ccc(C(F)(F)F)cc1)CC3 [Compound 2-15, N-(1-(4-fluorophenyl)piperidin-4-yl)-2-(4-(trifluoromethyl)benzyl)-2,3,4,5-tetrahydro-1H-pyrido[4,3-b]indole-8-carboxamide] |
| < 500 | Cn1c2c(c3cc(C(=O)NC4CCN(Cc5ccc(C#N)cc5)CC4)ccc31)CN(Cc1ccc(C(F)(F)F)cc1)CC2 [Compound 2-16, N-(1-(4-cyanobenzyl)piperidin-4-yl)-5-methyl-2-(4-(trifluoromethyl)benzyl)-2,3,4,5-tetrahydro-1H-pyrido[4,3-b]indole-8-carboxamide] |

Same assay, conditions: Table 10, compounds of Table 3

| EC50 [nM] | SMILES |
| --- | --- |
| 1000 to 10000 | CC(C)(C)OC(=O)N1CCC(Oc2ncc(C(=O)NC3CCN(Cc4ccc(C#N)cc4)CC3)s2)CC1 [Compound 3-26, tert-butyl 4-(5-(1-(4-cyanobenzyl)piperidin-4-ylcarbamoyl)thiazol-2-yloxy)piperidine-1-carboxylate] |
| 1000 to 10000 | CC(C)(C)OC(=O)N1CCC(NC(=O)c2cnc(OC3CCN(c4ccc(C(F)(F)F)cc4)CC3)cn2)CC1 [Compound 3-19, tert-butyl 4-(5-(1-(4-(trifluoromethyl)phenyl)piperidin-4-yloxy)pyrazine-2-carboxamido)piperidine-1-carboxylate] |
| 1000 to 10000 | O=C(NC1CCN(Cc2cccnc2)CC1)c1ccc2c(c1)CN(Cc1ccc(F)cc1)CC2 [Compound 3-35, 2-(4-fluorobenzyl)-N-(1-(pyridin-3-ylmethyl)piperidin-4-yl)-1,2,3,4-tetrahydroisoquinoline-7-carboxamide] |

Same assay, conditions: Table 12, compounds of Table 5

| EC50 [nM] | SMILES |
| --- | --- |
| < 1000 | O=C(NC1CCN(C(=O)c2ccc(F)cc2)CC1)c1ccc(OC2CCN(c3ccc(C(F)(F)F)cc3)CC2)c(F)c1 [Compound 5-31, 3-fluoro-N-(1-(4-fluorobenzoyl)piperidin-4-yl)-4-(1-(4-(trifluoromethyl)phenyl)piperidin-4-yloxy)benzamide] |
| < 1000 | O=C(NC1CCN(Cc2ccc(F)cc2)CC1)c1ccc(OC2CCN(c3ccc(C(F)(F)F)cc3)CC2)c(F)c1 [Compound 5-27, 3-fluoro-N-(1-(4-fluorobenzyl)piperidin-4-yl)-4-(1-(4-(trifluoromethyl)phenyl)piperidin-4-yloxy)benzamide] |
| < 1000 | O=C(NC1CCN(Cc2ccncc2)CC1)c1ccc(OC2CCN(c3ccc(C(F)(F)F)cc3)CC2)c(F)c1 [Compound 5-28, 3-fluoro-N-(1-(pyridin-4-ylmethyl)piperidin-4-yl)-4-(1-(4-(trifluoromethyl)phenyl)piperidin-4-yloxy)benzamide] |

Same assay, conditions: Table 13, compounds of Table 6

| EC50 [nM] | SMILES |
| --- | --- |
| < 100 | CS(=O)(=O)c1cccc(CN2CCN(C(=O)c3ccc4oc(C(=O)NC5CCN(Cc6ccc(C#N)c(F)c6)CC5)cc4c3)CC2)c1 [Compound 6-150, N-(1-(4-cyano-3-fluorobenzyl)piperidin-4-yl)-5-(4-(3-(methylsulfonyl)benzyl)piperazine-1-carbonyl) benzofuran-2-carboxamide] |
| 100 to 1000 | CS(=O)(=O)c1ccc(CN2CCN(C(=O)c3ccc4oc(C(=O)NC5CCN(Cc6ccc(OC(F)F)cc6)CC5)cc4c3)CC2)cc1 [Compound 6-101, N-(1-(4-(difluoromethoxy)benzyl)piperidin-4-yl)-5-(4-(4-(methylsulfonyl)benzyl)piperazine-1-carbonyl) benzofuran-2-carboxamide] |
| < 100 | COc1ccc(CN2CCC(NC(=O)c3cc4cc(C(=O)N5CCN(Cc6ccc(Br)c(S(C)(=O)=O)c6)CC5)ccc4o3)CC2)cc1F [Compound 6-143, 5-(4-(4-bromo-3-(methylsulfonyl)benzyl)piperazine-1-carbonyl)-N-(1-(3-fluoro-4-methoxybenzyl)piperidin-4-yl)benzofuran-2-carboxamide] |
| < 100 | COc1ccc(CN2CCC(NC(=O)c3cc4cc(C(=O)N5CCN(Cc6ccc(S(C)(=O)=O)c(C)c6)CC5)ccc4o3)CC2)cc1F [Compound 6-130, N-(1-(3-fluoro-4-methoxybenzyl)piperidin-4-yl)-5-(4-(3-methyl-4-(methylsulfonyl)benzyl)piperazine-1-carbonyl) benzofuran-2-carboxamide] |
| < 100 | COc1ccc(CN2CCC(NC(=O)c3cc4cc(C(=O)N5CCC(Oc6ccc(S(C)(=O)=O)cc6)CC5)ccc4o3)CC2)cc1 [Compound 6-164, N-(1-(4-methoxybenzyl)piperidin-4-yl)-5-(4-(4-(methylsulfonyl)phenoxy)piperidine-1-carbonyl) benzofuran-2-carboxamide] |

Same assay, conditions: Table 14, compounds of Table 7

| EC50 [nM] | SMILES |
| --- | --- |
| 1000 to 10000 | COc1ccc(CN2CCC(NC(=O)c3ccc(C(=O)N4CCC(Oc5ccc6c(c5)ncn6C)CC4)nc3)CC2)cc1 [Compound 7-40, N-(1-(4-methoxybenzyl)piperidin-4-yl)-6-(4-(1-methyl-1H-benzo[d]imidazol-5-yloxy)piperidine-1-carbonyl)nicotinamide] |
| < 1000 | N#Cc1ccc(CN2CCC(NC(=O)c3ccc(C(=O)N4CCC(Oc5ccc(S(=O)(=O)C(F)(F)F)cc5)CC4)nc3)CC2)cc1 [Compound 7-118, N-(1-(4-cyanobenzyl)piperidin-4-yl)-6-(4-(4-(trifluoromethylsulfonyl)phenoxy)piperidine-1-carbonyl)nicotinamide] |
| < 1000 | N#Cc1ccc(CN2CCC(NC(=O)c3ccc(N4CCN(c5ccc(C(=O)C6CC6)cc5)CC4)nc3)CC2)cc1 [Compound 7-81, N-(1-(4-cyanobenzyl)piperidin-4-yl)-6-(4-(4-(cyclopropanecarbonyl)phenyl)piperazin-1-yl)nicotinamide] |
| < 1000 | Cc1nc2cc(OC3CCN(C(=O)c4ccc(C(=O)NC5CCN(Cc6ccc(OC(F)(F)F)cc6)CC5)cn4)CC3)ccc2s1 [Compound 7-23, 6-(4-(2-methylbenzo[d]thiazol-5-yloxy)piperidine-1-carbonyl)-N-(1-(4-(trifluoromethoxy)benzyl)piperidin-4-yl)nicotinamide] |
